The nature of the data set: Solubility in Disintegration Test 2nd fluid (Test Example 1). The conditions noted are these: approx. 50 mg in 500 mL Disintegration Test 2nd fluid (Japanese pharmacopoeia, 14th Edition), paddles 50 rpm, concentration by HPLC over time (FIG. 17); compared with crystal form B.

Procedure: First, 500 mL of the 2nd fluid was stirred at 50 rpm with paddles (Toyama Co., Ltd.; DISSOLUTION TESTER), then after the crystals and amorphous compound were added, the solution was sampled at each time period. The sampled solutions were filtered through a filter (0.2 μm), and the concentration of 5-[2-amino-4-(2-furyl)pyrimidin-5-yl]-1-methylpyridin-2(1H)-one in the solution was measured by HPLC method. The conditions for HPLC method are shown below.
Column: CAPCELL PAK C18 AQ, S-5 μm, 4.6 mm ID×250 mm length (Shiseido, Japan)
Column temperature: a constant temperature around 30° C.
Detection wavelength: 262 nm
Solution A: acetonitrile/water/1M ammonium acetate (10:1000:1, v/v/v)
Solution B: acetonitrile/water/1M ammonium acetate (900:100:1, v/v/v)

For the compound `Cn1cc(-c2cnc(N)nc2-c2ccco2)ccc1=O.O` [hydrate crystals, 5-[2-amino-4-(2-furyl)pyrimidin-5-yl]-1-methylpyridin-2(1H)-one hydrate], the solubility entry was “superior in solubility than the crystal form B”.
As for `Cn1cc(-c2cnc(N)nc2-c2ccco2)ccc1=O` [crystal form C, 5-[2-amino-4-(2-furyl)pyrimidin-5-yl]-1-methylpyridin-2(1H)-one], the solubility result is given as “superior in solubility than the crystal form B”.

These data come from patent publication US7767812B2, “Crystals of pyrimidine compound and process for producing the same” (Eisai R&D Management Co., Ltd., priority 2005, dated 2010).
